Where “and” joins values, the source holds several entries; their conditions need not be identical. Equal entries are not always repeated.
How the values were obtained:
[1] = test system: PC3 PD-L1 overexpressing and PD-L1-mock tumors; test: PET imaging in NMRI-nude mice bearing PC3 PD-L1 and PC3 mock tumors; format: in vivo; settings: for reduction of PD-L1 positive tumor uptake under blocking conditions / reduction of liver uptake under blocking conditions / contrast of PD-L1 positive tumor SUVmax over mock tumor: 1–2 h p.i.; for reduction of PD-L1 positive tumor uptake under blocking conditions / reduction of liver uptake under blocking conditions: 500 nmol unlabeled compound; for contrast of PD-L1 positive tumor SUVmax over mock tumor: percent higher than mock tumor; for excretion pattern / clearance route in PET / SUVmax PC3 PD-L1 tumor, blocking / SUVmax PC3 mock tumor, blocking / SUVmax kidney, blocking / SUVmax liver, blocking / SUVmax PC3 PD-L1 tumor / SUVmax PC3 mock tumor / SUVmax kidney / SUVmax liver: mice; for excretion pattern / clearance route in PET: PET 0–25 h p.i.; for SUVmax PC3 PD-L1 tumor / SUVmax PC3 mock tumor / SUVmax kidney / SUVmax liver: tracer only, i.v.
Procedure: Male athymic NMRI-nude mice (Rj:NMRI-Foxn1nu, Janvier Labs, Le Genest-Saint-Isle, France) aged between 8 to 16 weeks were employed for the study. General anesthesia was induced [~ 10% desflurane (Baxter, Deerfield, IL, USA) in 30 vol% oxygen + air] under controlled warming (37°C), and mice were subcutaneously injected with 3–5 × 10^6 PC3 PD-L1 and PC3 mock cells (in 50 µL PBS + 50 µL Matrigel, Corning, Glendale, CA, USA) into the right and left thigh, respectively. The growth of tumors was systematically monitored three times per week through caliper measurements, and animals with tumor sizes above 7 mm were included in the subsequent experiments.
PET and X-ray computed tomography (CT) scans were conducted under general anesthesia using a small animal nanoScan PET/CT scanner (Mediso, Budapest, Hungary), capable of imaging four animals simultaneously. CT images served attenuation correction and anatomical referencing. A total of three individual scans were conducted, corresponding to the timeframes of 0–2 h (dynamic reconstruction), 4–5 h, and 24–25 h (one frame reconstruction) after injection.
The PD-L1 radiotracer candidates (in 300 µL sterile 0.9% NaCl/HEPES buffer, pH 6–7, containing between 7 and 12 MBq, with molar activities exceeding 12 GBq/µmol) were intravenously delivered over 30 s through a catheter in the lateral tail vein. The PET acquisition was initiated simultaneously with the administration.
The acquired three-dimensional list mode data were sorted and binned within a 400–600 keV energy window, forming […] (15 × 10 s, 5 × 30 s, 5 × 60 s, 4 × 300 s, 3 × 600 s, 3 × 1200 s). Reconstruction of the time frames was accomplished using the Tera-TomoTM 3D algorithm, utilizing a voxel size of 0.4 mm and applying corrections for decay, scatter, and attenuation. The images were subjected to post-processing and analysis using Rover software (ABX GmbH, Radeberg, Germany), and were depicted as maximum intensity projections (MIPs) at the specified timepoints and scaling.
Three-dimensional volumes of interest were defined using fixed thresholding at 35–40% of the maximal measured intensity. Standardized uptake values (SUV = [MBq detected activity/mL tissue] / [MBq injected activity/g body weight], in mL/g) were then calculated within the selected volumes of interest, encompassing PD-L1 and mock tumors, as well as metabolizing organs.

PD-L1 = PD-L1 (Homo sapiens, UniProt Q9NZQ7); test: Real-time radioligand binding (LigandTracer) on PC3 PD-L1 overexpressing cells, without BSA; set-up: expressed in transfected cells; host or cells: PC3 PD-L1 overexpressing cells; settings: for Kd: PC3 PD-L1 overexpressing cells, room temperature, without BSA; for ka: association rate constant; for ka / kd: real-time binding; for kd: dissociation rate constant
Sequence of PD-L1 (Q9NZQ7 19-290): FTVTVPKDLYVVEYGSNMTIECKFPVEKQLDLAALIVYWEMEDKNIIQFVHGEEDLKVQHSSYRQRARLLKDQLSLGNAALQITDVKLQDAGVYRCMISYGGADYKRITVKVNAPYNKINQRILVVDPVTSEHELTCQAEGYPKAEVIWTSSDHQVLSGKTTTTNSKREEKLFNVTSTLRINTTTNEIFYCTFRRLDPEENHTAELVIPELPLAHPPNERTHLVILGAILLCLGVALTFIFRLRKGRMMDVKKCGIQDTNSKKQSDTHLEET
Procedure: For the saturation binding experiments, cells were detached with 0.05% Trypsin–EDTA (Gibco, USA), and counted (CASY1 cell counter, Schaerfe System, Reutlingen, Germany). Cells were then diluted in medium to ~ 160,000 cells/mL and seeded in 48 well plates (Falcon Multiwell #353078, ThermoFisher, Karlsruhe, Germany) for at least 2 days prior to saturation binding experiments. For real-time radioligand binding, approximately 400,000 cells/mL were seeded into one side of petri dishes (3 mL, Nunclon, # 150350, ThermoFisher Germany) ~ 24 h before the experiments.
To investigate binding kinetics, including the association rate constant (ka) and dissociation rate constant (kd), as well as the dissociation constant (KD), a real-time assay system (LigandTracer Yellow or LigandTracer White, Ridgeview Instruments AB, Uppsala, Sweden) was utilized. The petri dish contained attached cells in medium (3 mL) on one side, while radioactivity was detected on the opposing side. The petri dish is set upon an inclined base, allowing continuous measurement of alternating portions of the dish for bound radioligand (cells) compared to the background signal (no cells). Binding experiments were carried out at room temperature using CO2-independent medium (Gibco #18045088, ThermoFisher Germany).
The association phase consisted of incubation with two concentrations (30 and 90 nM, each for 90 min) of our ^64Cu-labeled PD-L1-radioligands, binding to PC3 PD-L1 overexpressing cells. Following this, the incubation medium was replaced with fresh medium, and the dissociation phase was monitored for a minimum of 2 h. […] Data were recorded as decay-corrected counts per second (CPS). Subsequently, binding data were analyzed using TraceDrawer software (version 1.9.2, Ridgeview Instruments AB, Uppsala, Sweden). Traces were imported, potential spikes (instances of sudden CPS increases exceeding 100% of the previous data point) were eliminated, and each trace was normalized to its own baseline (set as 0%) and its maximum value (set as 100%).

[2] = tracer +500 nM respective unlabeled compound (injected 5 min prior), 1-2 hour p.i.
[3] = tracer +500 nM respective unlabeled compound, 1-2 hour p.i.
[4] = tracer +500 nM respective unlabeled compound, 4-5 hour p.i.
[5] = tracer +500 nM respective unlabeled compound, 24-25 hour p.i.
[6] = 1-2 hour p.i., listed as [64Cu]Cu-14
[7] = 4-5 hour p.i., listed as [64Cu]Cu-14
[8] = 1-2 hour p.i., listed as [64Cu]Cu-16

SMILES | reduction of PD-L1 positive tumor uptake under blocking conditions [1] [%] | reduction of liver uptake under blocking conditions [1] [%] | contrast of PD-L1 positive tumor SUVmax over mock tumor [1] [%] | excretion pattern / clearance route in PET [1] | SUVmax PC3 PD-L1 tumor, blocking [1, 2] | SUVmax PC3 mock tumor, blocking [1, 3] | SUVmax kidney, blocking [1, 3] | SUVmax liver, blocking [1, 3] | SUVmax PC3 PD-L1 tumor, blocking [1, 4] | SUVmax PC3 mock tumor, blocking [1, 4] | SUVmax kidney, blocking [1, 4] | SUVmax liver, blocking [1, 4] | SUVmax PC3 PD-L1 tumor, blocking [1, 5] | SUVmax PC3 mock tumor, blocking [1, 5] | SUVmax kidney, blocking [1, 5] | SUVmax liver, blocking [1, 5] | SUVmax PC3 PD-L1 tumor ([1]; 1-2 hour p.i.) | SUVmax PC3 mock tumor ([1]; 1-2 hour p.i.) | SUVmax kidney ([1]; 1-2 hour p.i.) | SUVmax liver ([1]; 1-2 hour p.i.) | other results
Cc1c(COc2cc(OCc3cncc(S(C)(=O)=O)c3)c(CN[C@@H](CS(=O)(=O)O)C(=O)NCCS(=O)(=O)O)cc2Br)cccc1-c1cccc(OCc2cn(CCCN3CCN(C(=O)[C@H](CS(=O)(=O)O)NC(=O)CC[C@H](C(=O)[O-])N4CCN(CC(=O)[O-])CCN(CC(=O)[O-])CC4)CC3)nn2)c1C.[64Cu+2] [[^64Cu]Cu-14] | 13 | 63 | 99 | favorable renal clearance | 1.48 ± 0.44 | 1.19 | 32.81 | 1.25 ± 0.13 | 0.78 | 0.48 | 0.88 | 0.98 | 1.53 | 1.05 | 0.44 | 0.99 | 1.71 ± 0.04 | 0.86 ± 0.16 | 22.8 ± 3.0 | 3.41 ± 0.19 | SUVmax PC3 PD-L1 tumor, blocking ([1]; tracer +500 nM respective unlabeled compound (injected 5 min prior), 1-2 hour p.i., listed as [64Cu]Cu-14): 1.48; SUVmax liver, blocking ([1]; tracer +500 nM respective unlabeled compound, 1-2 hour p.i., listed as [64Cu]Cu-14): 1.25; SUVmax PC3 PD-L1 tumor [1, 6]: 1.71; SUVmax PC3 mock tumor [1, 6]: 0.86; SUVmax kidney [1, 6]: 22.77; SUVmax liver [1, 6]: 3.41; SUVmax PC3 PD-L1 tumor ([1]; 4-5 hour p.i.): 1.26; SUVmax PC3 mock tumor ([1]; 4-5 hour p.i.): 0.50; SUVmax kidney ([1]; 4-5 hour p.i.): 0.72 ± 0.24; SUVmax liver ([1]; 4-5 hour p.i.): 1.54 ± 0.19; SUVmax kidney [1, 7]: 0.72; SUVmax liver [1, 7]: 1.54; SUVmax PC3 PD-L1 tumor ([1]; 24-25 hour p.i.): 1.52; SUVmax PC3 mock tumor ([1]; 24-25 hour p.i.): 1.49; SUVmax kidney ([1]; 24-25 hour p.i.): 0.63; SUVmax liver ([1]; 24-25 hour p.i.): 1.41; Kd (PD-L1): ~20 nM and 23.3 nM; ka (PD-L1): (5.06 ± 0.25) × 10^3 (M × s)^–1; kd (PD-L1): (1.17 ± 0.06) × 10^–4 s^–1
Cc1c(COc2cc(OCc3cncc(S(C)(=O)=O)c3)c(CN[C@@H](CS(=O)(=O)O)C(=O)NCCS(=O)(=O)O)cc2Br)cccc1-c1cccc(OCc2cn(CCCN3CCN(C(=O)[C@H](CS(=O)(=O)O)NC(=O)CCCC(=O)NC45CNCCNCC(N)(CNCCNC4)CNCCNC5)CC3)nn2)c1C.[64Cu+2] [[^64Cu]Cu-16] | 10 | 74 | 107 | clearance via the renal pathway | 1.45 ± 0.06 | 0.90 | 7.93 | 1.13 ± 0.04 | 0.68 | 0.54 | 1.28 | 0.84 | 1.14 | 1.01 | 1.02 | 0.85 | 1.61 ± 0.93 | 0.78 ± 0.36 | 16.2 ± 15.5 | 4.32 ± 0.02 | SUVmax PC3 PD-L1 tumor, blocking ([1]; tracer +500 nM respective unlabeled compound (injected 5 min prior), 1-2 hour p.i., listed as [64Cu]Cu-16): 1.45; SUVmax liver, blocking ([1]; tracer +500 nM respective unlabeled compound, 1-2 hour p.i., listed as [64Cu]Cu-16): 1.13; SUVmax PC3 PD-L1 tumor [1, 8]: 1.61; SUVmax PC3 mock tumor [1, 8]: 0.78; SUVmax kidney [1, 8]: 16.18; SUVmax liver [1, 8]: 4.32; SUVmax PC3 PD-L1 tumor ([1]; 4-5 hour p.i.): 0.89; SUVmax PC3 mock tumor ([1]; 4-5 hour p.i.): 0.37; SUVmax kidney ([1]; 4-5 hour p.i.): 1.37; SUVmax liver ([1]; 4-5 hour p.i.): 2.49; SUVmax PC3 PD-L1 tumor ([1]; 24-25 hour p.i.): 1.47; SUVmax PC3 mock tumor ([1]; 24-25 hour p.i.): 0.87; SUVmax kidney ([1]; 24-25 hour p.i.): 0.90; SUVmax liver ([1]; 24-25 hour p.i.): 1.77 ± 0.08; SUVmax liver ([1]; 24-25 hour p.i., listed as [64Cu]Cu-16): 1.77; Kd (PD-L1): 24.2 ± 0.93 nM; ka (PD-L1): (5.55 ± 0.31) × 10^3 (M × s)^–1; kd (PD-L1): (1.35 ± 0.09) × 10^–4 s^–1
